Assay results taken from patent publication US11826351B2, “Compounds useful as kinase inhibitors” (Loxo Oncology, Inc., priority 2015, dated 2023).

How the values were obtained:
Recombinant EGFR = target: T1, Recombinant EGFR (Homo sapiens, UniProt P00533); test: EGFR binding affinity (LanthaScreen TR-FRET); settings: Kinase Tracer 199, 5 h incubation
T1 construct: purchased Invitrogen
Procedure, shortened: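 Compounds were titrated against recombinant EGFR and binding was followed by LanthaScreen time-resolved FRET.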

[1] = tested on: OCI-Ly10 human DLBCL cells; test: OCI-Ly10 anti-proliferative activity (Resazurin); format: cell-based; settings: Homo sapiens, OCI-Ly10, 72 h, OCI-Ly10 cells, 72 h compound treatment, Resazurin; read-out: Proliferation Assay OCI-Ly10-20% FBS
Procedure, shortened: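 A separate untreated plate gave the Day 0 reading, measured by Resazurin fluorescence at 590 nm after 5 h. The average Day 0 value was subtracted from each treated well, and results were expressed as percent of DMSO control. IC50 values came from a log[Inhibitor] vs response Variable Slope fit in Graphpad prism.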

[2] = target: T2, Recombinant BTK^C481S kinase (Homo sapiens, UniProt Q06187, C481S); test: BTK C481S binding affinity (LanthaScreen TR-FRET); settings: Kinase Tracer 236, 5 h incubation
T2 construct: purchased SignalChem
T2 sequence (Q06187 whole entry C481S): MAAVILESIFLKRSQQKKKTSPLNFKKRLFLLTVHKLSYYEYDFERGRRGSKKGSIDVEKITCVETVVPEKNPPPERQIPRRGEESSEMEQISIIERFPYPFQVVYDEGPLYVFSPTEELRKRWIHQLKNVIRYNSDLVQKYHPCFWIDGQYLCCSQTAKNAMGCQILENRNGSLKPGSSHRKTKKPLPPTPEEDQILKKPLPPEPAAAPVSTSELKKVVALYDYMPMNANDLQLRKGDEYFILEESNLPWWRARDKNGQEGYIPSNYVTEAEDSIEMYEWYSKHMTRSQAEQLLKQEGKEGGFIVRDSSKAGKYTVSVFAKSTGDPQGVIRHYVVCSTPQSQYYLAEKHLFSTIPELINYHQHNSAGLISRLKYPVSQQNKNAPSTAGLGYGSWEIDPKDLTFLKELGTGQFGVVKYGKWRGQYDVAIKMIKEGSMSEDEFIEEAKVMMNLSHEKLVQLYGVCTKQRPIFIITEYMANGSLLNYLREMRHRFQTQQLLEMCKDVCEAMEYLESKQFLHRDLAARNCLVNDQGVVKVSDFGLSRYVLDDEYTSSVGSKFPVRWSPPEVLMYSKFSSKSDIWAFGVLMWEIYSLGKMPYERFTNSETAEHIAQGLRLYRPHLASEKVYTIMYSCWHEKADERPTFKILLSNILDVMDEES
Procedure, shortened: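 BTK C481S tracer-displacement TR-FRET: 5 nM His-tagged kinase, 2 nM Eu anti-His antibody and 30 nM Kinase Tracer 236 incubated with titrated inhibitor for 5 h in Kinase Buffer A. Read at 340 nm excitation, 615/665 nm emission; IC50 from variable-slope log[inhibitor]–response fit.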

[3] = target: T3, Recombinant BTK^WT kinase (Homo sapiens, UniProt Q06187); test: BTK WT binding affinity (LanthaScreen TR-FRET); settings: Kinase Tracer 236, 5 h incubation
T3 construct: purchased Invitrogen
T3 sequence (Q06187 whole entry): as the sequence (Q06187 whole entry C481S) above, with S481C counted along it
Procedure, shortened: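 IC50 obtained by variable-slope fit of TR-FRET signal (ex 340 nm; em 615 and 665 nm) versus inhibitor concentration. Reaction held for 5 h in LanthaScreen Kinase Buffer A with 2.5 nM His-tagged BTK^WT, 15 nM Kinase Tracer 236 and 2 nM Eu anti-His antibody.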

T1 sequence (P00533 25-1210): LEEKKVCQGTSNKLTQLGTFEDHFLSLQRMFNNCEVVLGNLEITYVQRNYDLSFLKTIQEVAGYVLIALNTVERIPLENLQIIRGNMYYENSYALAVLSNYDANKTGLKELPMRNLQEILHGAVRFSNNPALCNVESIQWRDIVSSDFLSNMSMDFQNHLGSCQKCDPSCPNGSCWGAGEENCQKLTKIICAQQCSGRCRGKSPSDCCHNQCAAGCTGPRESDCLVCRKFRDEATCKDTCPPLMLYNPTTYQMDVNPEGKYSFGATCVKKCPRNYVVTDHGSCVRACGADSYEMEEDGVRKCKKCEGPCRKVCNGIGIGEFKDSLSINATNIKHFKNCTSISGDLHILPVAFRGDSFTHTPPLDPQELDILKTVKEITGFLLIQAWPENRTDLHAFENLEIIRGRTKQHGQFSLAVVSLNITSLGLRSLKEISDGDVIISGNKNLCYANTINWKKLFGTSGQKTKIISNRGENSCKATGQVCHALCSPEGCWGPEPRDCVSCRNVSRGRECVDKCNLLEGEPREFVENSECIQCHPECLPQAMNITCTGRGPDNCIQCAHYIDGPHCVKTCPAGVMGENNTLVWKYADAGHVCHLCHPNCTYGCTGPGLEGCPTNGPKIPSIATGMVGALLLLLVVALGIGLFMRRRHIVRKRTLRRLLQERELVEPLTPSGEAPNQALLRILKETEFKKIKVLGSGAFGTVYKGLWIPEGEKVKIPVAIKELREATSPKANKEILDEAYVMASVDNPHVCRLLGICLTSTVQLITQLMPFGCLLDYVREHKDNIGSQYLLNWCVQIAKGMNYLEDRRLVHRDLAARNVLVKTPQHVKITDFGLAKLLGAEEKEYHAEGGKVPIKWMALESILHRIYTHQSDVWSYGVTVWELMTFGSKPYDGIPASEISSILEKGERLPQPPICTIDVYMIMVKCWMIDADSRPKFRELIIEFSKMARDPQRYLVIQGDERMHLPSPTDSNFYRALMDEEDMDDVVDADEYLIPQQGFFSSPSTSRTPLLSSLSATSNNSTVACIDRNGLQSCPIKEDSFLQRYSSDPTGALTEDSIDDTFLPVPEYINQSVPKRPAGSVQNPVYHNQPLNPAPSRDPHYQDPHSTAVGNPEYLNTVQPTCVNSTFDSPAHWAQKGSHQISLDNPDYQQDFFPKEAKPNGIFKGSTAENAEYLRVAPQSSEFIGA

SMILES | IC50 (Recombinant EGFR) | IC50 [1] | IC50 [2] | IC50 [3]
COc1ccccc1C(=O)NCc1ccc(-c2nn(C3CCCC3)c(C)c2C(N)=O)cc1 [Example 24, 1-Cyclopentyl-3-[4-[[(2-methoxybenzoyl)amino]methyl]phenyl]-5-methyl-pyrazole-4-carboxamide] | 1000 to 10000 nM | 100 to 1000 nM | 10 to 100 nM | 10 to 100 nM
COc1ccccc1C(=O)NCc1ccc(-c2nn(CCc3nnn[nH]3)c(N)c2C(N)=O)cc1 [Example 25, 5-Amino-3-[4-[[(2-methoxybenzoyl)amino]methyl]phenyl]-1-[2-(1H-tetrazol-5-yl)ethyl]pyrazole-4-carboxamide] | 1000 to 10000 nM | > 10000 nM | < 10 nM | 10 to 100 nM
COc1ccccc1C(=O)NCc1ccc(-c2nn(C3CCC(C)(C)CC3)c(N)c2C(N)=O)cc1 [Example 26, 5-Amino-1-(4,4-dimethylcyclohexyl)-3-[4-[[(2-methoxybenzoyl)amino]methyl]phenyl]pyrazole-4-carboxamide] | 10 to 100 nM | < 10 nM | < 10 nM | < 10 nM
COc1ccccc1C(=O)NCc1ccc(-c2nn(C3CC3)c(N)c2C(N)=O)cc1 [Example 29, 5-Amino-1-cyclopropyl-3-[4-[[(2-methoxybenzoyl)amino]methyl]phenyl]pyrazole-4-carboxamide] | 1000 to 10000 nM | 100 to 1000 nM | < 10 nM | < 10 nM
COc1ccccc1C(=O)NCc1ccc(-c2nn(C)c(N)c2C(N)=O)cc1 [Example 30, 5-Amino-3-[4-[[(2-methoxybenzoyl)amino]methyl]phenyl]-1-methyl-pyrazole-4-carboxamide] | > 10000 nM | 100 to 1000 nM | 10 to 100 nM | 10 to 100 nM
COc1ccccc1C(=O)NCc1ccc(-c2nn(CCO)c(N)c2C(N)=O)cc1 [Example 31, 5-Amino-1-(2-hydroxyethyl)-3-[4-[[(2-methoxybenzoyl)amino]methyl]phenyl]pyrazole-4-carboxamide] | > 10000 nM | 1000 to 10000 nM | 10 to 100 nM | 10 to 100 nM
COc1ccccc1C(=O)NCc1ccc(-c2nn(-c3cccc(F)c3)c(N)c2C(N)=O)cc1 [Example 32, 5-amino-1-(3-fluorophenyl)-3-[4-[[(2-methoxybenzoyl)amino]methyl]phenyl]pyrazole-4-carboxamide] | 100 to 1000 nM | 10 to 100 nM | < 10 nM | < 10 nM
COc1ccccc1C(=O)NCc1ccc(-c2nn(C3CCC3)c(N)c2C(N)=O)cc1 [Example 35, 5-Amino-1-cyclobutyl-3-[4-[[(2-methoxybenzoyl)amino]methyl]phenyl]pyrazole-4-carboxamide] | 1000 to 10000 nM | 10 to 100 nM | < 10 nM | < 10 nM
COc1ccccc1C(=O)NCc1ccc(-c2nn(C3CCOC3)c(N)c2C(N)=O)cc1 (stereo not drawn) [Example 36, 5-Amino-3-[4-[[(2-methoxybenzoyl)amino]methyl]phenyl]-1-tetrahydrofuran-3-yl-pyrazole-4-carboxamide] | 1000 to 10000 nM | 10 to 100 nM | < 10 nM | < 10 nM
COc1ccccc1C(=O)NCc1ccc(-c2nn(C[C@@H]3CCCNC3)c(N)c2C(N)=O)cc1 [Example 38, 5-amino-3-[4-[[(2-methoxybenzoyl)amino]methyl]phenyl]-1-[[(3R)-3-piperidyl]methyl]pyrazole-4-carboxamide] | > 10000 nM | > 10000 nM | 1000 to 10000 nM | > 10000 nM
COc1ccccc1C(=O)NCc1ccc(-c2nn(-c3ccccc3F)c(N)c2C(N)=O)cc1 [Example 39, 5-amino-1-(2-fluorophenyl)-3-[4-[[(2-methoxybenzoyl)amino]methyl]phenyl]pyrazole-4-carboxamide] | 100 to 1000 nM | 10 to 100 nM | < 10 nM | < 10 nM
CCOC(=O)C1CCC(n2nc(-c3ccc(CNC(=O)c4ccccc4OC)cc3)c(C(N)=O)c2N)CC1 (stereo not drawn) [Example 40, Ethyl 4-[5-amino-4-carbamoyl-3-[4-[[(2-methoxybenzoyl)amino]methyl]phenyl]pyrazol-1-yl]cyclohexanecarboxylate] | 100 to 1000 nM | 10 to 100 nM | < 10 nM | < 10 nM
COc1ccccc1C(=O)NCc1ccc(-c2nn(-c3ccc(F)cc3)c(N)c2C(N)=O)cc1 [Example 43, 5-amino-1-(4-fluorophenyl)-3-[4-[[(2-methoxybenzoyl)amino]methyl]phenyl]pyrazole-4-carboxamide] | 100 to 1000 nM | 10 to 100 nM | < 10 nM | < 10 nM
COc1ccccc1C(=O)NCc1ccc(-c2nn(-c3ccc(C)cc3)c(N)c2C(N)=O)cc1 [Example 44, 5-amino-3-[4-[[(2-methoxybenzoyl)amino]methyl]phenyl]-1-(p-tolyl)pyrazole-4-carboxamide] | 100 to 1000 nM | 10 to 100 nM | < 10 nM | < 10 nM
COC(=O)c1ccc(-n2nc(-c3ccc(CNC(=O)c4ccccc4OC)cc3)c(C(N)=O)c2N)cc1 [Example 45, Methyl 4-[5-amino-4-carbamoyl-3-[4-[[(2-methoxybenzoyl)amino]methyl]phenyl]pyrazol-1-yl]benzoate] | 1000 to 10000 nM | 10 to 100 nM | < 10 nM | < 10 nM
COc1ccccc1C(=O)NCc1ccc(-c2nn(-c3ccccc3C)c(N)c2C(N)=O)cc1 [Example 47, 5-amino-3-[4-[[(2-methoxybenzoyl)amino]methyl]phenyl]-1-(o-tolyl)pyrazole-4-carboxamide] | 1000 to 10000 nM | 100 to 1000 nM | < 10 nM | 10 to 100 nM
COc1ccccc1C(=O)NCc1ccc(-c2nn(C3CCCC(O)C3)c(N)c2C(N)=O)cc1 (stereo not drawn) [Example 48, 5-amino-1-(3-hydroxycyclohexyl)-3-[4-[[(2-methoxybenzoyl)amino]methyl]phenyl]pyrazole-4-carboxamide] | 100 to 1000 nM | 100 to 1000 nM | < 10 nM | < 10 nM
COc1ccccc1C(=O)NCc1ccc(-c2nn(-c3ccc(CO)cc3)c(N)c2C(N)=O)cc1 [Example 49, 5-amino-1-[4-(hydroxymethyl)phenyl]-3-[4-[[(2-methoxybenzoyl)amino]methyl]phenyl]pyrazole-4-carboxamide] | 100 to 1000 nM | 10 to 100 nM | < 10 nM | < 10 nM
COc1ccccc1C(=O)NCc1ccc(-c2nn(-c3cccc(C)c3)c(N)c2C(N)=O)cc1 [Example 50, 5-amino-3-[4-[[(2-methoxybenzoyl)amino]methyl]phenyl]-1-(m-tolyl)pyrazole-4-carboxamide] | 100 to 1000 nM | 10 to 100 nM | < 10 nM | < 10 nM
COc1ccccc1C(=O)NCc1ccc(-c2nn(-c3cccnc3)c(N)c2C(N)=O)cc1 [Example 51, 5-amino-3-[4-[[(2-methoxybenzoyl)amino]methyl]phenyl]-1-(3-pyridyl)pyrazole-4-carboxamide] | 100 to 1000 nM | 10 to 100 nM | < 10 nM | < 10 nM
COc1ccccc1C(=O)NCc1ccc(-c2nn(C3Cc4ccccc4C3)c(N)c2C(N)=O)cc1 [Example 52, 5-amino-1-indan-2-yl-3-[4-[[(2-methoxybenzoyl)amino]methyl]phenyl]pyrazole-4-carboxamide] | 100 to 1000 nM | 10 to 100 nM | < 10 nM | < 10 nM
